Columns and labels:
[1] = biological target: Bacillus coagulans 36D1 2-enoate reductase EREDBC, SEQ ID NO: 1 (Heyndrickxia coagulans, UniProt A0AAN0T7I1); assay: Kinetics of purified EREDBC, NADH oxidation at 340 nm, anaerobic; assay type: biochemical; conditions: for saturation by substrate: anaerobic, aqueous buffer
Description: (§1) The C═C reducing activity of EREDs was examined. Enzyme activity of purified EREDs was measured spectrophotometrically in 96-well plates by following incubation for 3-5 min at 30° C. in the anaerobic chamber as described in M. Buhler, H. Simon, Hoppe-Seyler's Zeitschrift fur Physiologische Chemie 1982, 363, 609-625. Buffers and reagents were degassed and sparged with Ar. Reaction mixture contained potassium phosphate (100 mM and pH 7.0), NADH (0.5 mM), indicated substrates, and proteins (0.1-50 μg) in a final volume of 200 μL. Enzyme reactions were monitored by following the decrease in absorbance at 340 nm (ε340 nm=6,220/M·cm) due to oxidation of NADH to NAD+.
(§2) For in vitro biochemical characterization, enzyme activities of purified EREDs were measured with 2-hexenedioic acid, cis-cis-muconic acid, trans-trans muconic acid, trans-cinnamic acid, trans-2-methyl-2-butenoic acid, trans-2-butenoic acid, acrolein, 2-cyclohexen-1-one, and 3-methyl-2-cyclohexenone. […] [Feng, J. et al. Discovery and Characterization of BlsE, a Radical S-Adenosyl-L-methionine Decarboxylase Involved in the Blasticidin S Biosynthetic Pathway. PLoS ONE 8 (2013)].
Kinetic studies of purified EREDBC were performed using 2-hexenedioic acid, 2-cyclohexen-1-one, 3-methyl-2-cyclohexenone, and trans-cinnamic acid as substrates (FIG. 10).
(§3) To increase the dissolved substrate concentration, 2-hexenedioic acid was dissolved in a reaction mixture containing […] (final concentration) isopropanol, and kinetic constants of EREDBC and EREDCA were determined.

[2] = biological target: T1, Clostridium acetobutylicum DSM 1731 2-enoate reductase EREDCA, SEQ ID NO: 2 (Clostridium acetobutylicum, UniProt Q97DV0); assay: Kinetics of purified EREDCA, NADH oxidation at 340 nm, anaerobic; assay type: biochemical; conditions: 4 to 28 mM
T1 sequence (Q97DV0 1-664): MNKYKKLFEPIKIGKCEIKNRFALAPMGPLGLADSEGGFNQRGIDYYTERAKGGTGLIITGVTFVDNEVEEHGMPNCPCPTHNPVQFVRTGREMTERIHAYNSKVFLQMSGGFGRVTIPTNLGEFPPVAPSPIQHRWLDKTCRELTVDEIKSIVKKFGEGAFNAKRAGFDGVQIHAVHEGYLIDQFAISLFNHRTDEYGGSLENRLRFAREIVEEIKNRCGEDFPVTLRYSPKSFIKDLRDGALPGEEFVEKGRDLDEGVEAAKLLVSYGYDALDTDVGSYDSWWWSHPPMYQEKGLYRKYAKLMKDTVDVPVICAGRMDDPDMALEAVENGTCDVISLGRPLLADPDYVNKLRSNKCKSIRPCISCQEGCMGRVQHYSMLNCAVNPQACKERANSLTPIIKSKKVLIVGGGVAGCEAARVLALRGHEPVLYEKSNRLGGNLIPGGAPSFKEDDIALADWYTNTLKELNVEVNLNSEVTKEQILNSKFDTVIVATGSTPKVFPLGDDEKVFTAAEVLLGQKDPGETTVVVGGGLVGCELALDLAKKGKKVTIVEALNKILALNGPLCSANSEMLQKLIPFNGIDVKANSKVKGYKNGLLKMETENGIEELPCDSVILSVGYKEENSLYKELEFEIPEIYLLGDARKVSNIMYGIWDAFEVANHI
Description: as §1, §2, §3

[3] = biological target: Mycobacterium paratuberculosis carboxylate reductase MAP_1040c, SEQ ID NO: 38 (Mycobacterium avium, UniProt A0ACD7BNV2); assay: CAR kinetics, ATP/NADPH dependent carboxylic acid reduction
Mycobacterium paratuberculosis carboxylate reductase MAP_1040c, SEQ ID NO: 38, sequence (A0ACD7BNV2 entry or part of it): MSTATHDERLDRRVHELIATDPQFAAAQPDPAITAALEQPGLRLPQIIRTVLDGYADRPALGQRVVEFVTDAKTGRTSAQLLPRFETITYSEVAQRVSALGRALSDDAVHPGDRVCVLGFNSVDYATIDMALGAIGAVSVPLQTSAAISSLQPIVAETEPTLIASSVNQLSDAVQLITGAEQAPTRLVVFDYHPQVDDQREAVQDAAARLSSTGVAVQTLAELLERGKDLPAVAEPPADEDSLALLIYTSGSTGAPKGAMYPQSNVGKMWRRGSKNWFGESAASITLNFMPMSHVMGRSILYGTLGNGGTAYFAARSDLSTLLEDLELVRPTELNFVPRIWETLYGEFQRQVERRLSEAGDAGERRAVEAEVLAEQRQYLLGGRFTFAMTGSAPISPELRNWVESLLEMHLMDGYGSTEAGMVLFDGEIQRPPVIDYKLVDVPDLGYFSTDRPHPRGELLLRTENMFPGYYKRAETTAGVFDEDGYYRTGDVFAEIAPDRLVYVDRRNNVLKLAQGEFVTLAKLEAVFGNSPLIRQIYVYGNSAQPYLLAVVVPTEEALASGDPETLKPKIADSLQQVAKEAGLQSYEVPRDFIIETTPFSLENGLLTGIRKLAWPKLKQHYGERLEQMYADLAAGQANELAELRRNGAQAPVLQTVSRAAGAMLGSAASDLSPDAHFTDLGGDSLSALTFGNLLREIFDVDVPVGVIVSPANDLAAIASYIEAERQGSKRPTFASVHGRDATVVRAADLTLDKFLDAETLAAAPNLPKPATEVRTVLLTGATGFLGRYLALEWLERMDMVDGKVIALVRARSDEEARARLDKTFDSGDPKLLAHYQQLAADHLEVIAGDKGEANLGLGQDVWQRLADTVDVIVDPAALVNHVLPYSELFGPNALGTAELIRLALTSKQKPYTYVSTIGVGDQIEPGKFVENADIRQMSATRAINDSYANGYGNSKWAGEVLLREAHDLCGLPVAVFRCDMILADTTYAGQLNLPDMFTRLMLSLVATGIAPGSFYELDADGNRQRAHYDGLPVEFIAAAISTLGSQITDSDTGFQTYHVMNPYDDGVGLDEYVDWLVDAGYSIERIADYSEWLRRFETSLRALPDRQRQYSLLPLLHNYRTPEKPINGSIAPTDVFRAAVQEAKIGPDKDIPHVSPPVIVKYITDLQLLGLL

[4] = system: Rhodococcus jostii aldehyde reductase RHA1_ro05279, SEQ ID NO: 47; assay: AR kinetics, aldehyde reduction followed by NAD(P)H oxidation; assay type: biochemical
Excerpt: 28 aldehyde reductases from different bacteria were cloned and overexpressed in E. coli. Enzymes purified using affinity chromatography on Ni-NTA resin were screened for reductase activity with adipaldehyde and butyraldehyde in presence of both NADPH and NADH (Table 5). Butyraldehyde was used as a substrate substitute for 4-oxo-butanal, which is not commercially available. Reactions were followed spectrophotometrically, by cofactor oxidation at 340 nm.
(§4) Enzyme activity of purified ARs was measured spectrophotometrically in 96-well plates Reaction mixtures contained 100 mM HEPES buffer (pH 7.5), 0.4 mM NADH/NADPH, 10 mM adipaldehyde or butylaldehyde, and proteins (10 μg for adipaldehyde screen, 2 μg for butyraldehyde screen) in a final volume of 200 μL Reaction mixture for adipaldehyde screening contained 1.8% DMSO. Enzyme reactions were monitored by following the decrease in absorbance at 340 nm (ε340 nm=6,220/M·cm) due to oxidation of NAD(P)H to NAD(P)+.
ARs RHA1_ro05279, PA1146, SC00229, PP_3370 were characterised for saturation with adipaldehyde, PP_3370, PSPTO_2097, RHA1_ro05279, SC00229, TM_0111, PA1146 were characterised for butyraldehyde saturation (Table 10). […] For both substrates maximal kcat/Km with minimal Km values was shown by AR PP 3370 from Pseudomonas putida.

[5] = biological target: T2, Mycobacterium smegmatis carboxylate reductase MSMEG_5739, SEQ ID NO: 37 (Mycolicibacterium smegmatis, UniProt A0R484); assay: CAR kinetics, ATP/NADPH dependent carboxylic acid reduction
T2 sequence (A0R484 1-1173): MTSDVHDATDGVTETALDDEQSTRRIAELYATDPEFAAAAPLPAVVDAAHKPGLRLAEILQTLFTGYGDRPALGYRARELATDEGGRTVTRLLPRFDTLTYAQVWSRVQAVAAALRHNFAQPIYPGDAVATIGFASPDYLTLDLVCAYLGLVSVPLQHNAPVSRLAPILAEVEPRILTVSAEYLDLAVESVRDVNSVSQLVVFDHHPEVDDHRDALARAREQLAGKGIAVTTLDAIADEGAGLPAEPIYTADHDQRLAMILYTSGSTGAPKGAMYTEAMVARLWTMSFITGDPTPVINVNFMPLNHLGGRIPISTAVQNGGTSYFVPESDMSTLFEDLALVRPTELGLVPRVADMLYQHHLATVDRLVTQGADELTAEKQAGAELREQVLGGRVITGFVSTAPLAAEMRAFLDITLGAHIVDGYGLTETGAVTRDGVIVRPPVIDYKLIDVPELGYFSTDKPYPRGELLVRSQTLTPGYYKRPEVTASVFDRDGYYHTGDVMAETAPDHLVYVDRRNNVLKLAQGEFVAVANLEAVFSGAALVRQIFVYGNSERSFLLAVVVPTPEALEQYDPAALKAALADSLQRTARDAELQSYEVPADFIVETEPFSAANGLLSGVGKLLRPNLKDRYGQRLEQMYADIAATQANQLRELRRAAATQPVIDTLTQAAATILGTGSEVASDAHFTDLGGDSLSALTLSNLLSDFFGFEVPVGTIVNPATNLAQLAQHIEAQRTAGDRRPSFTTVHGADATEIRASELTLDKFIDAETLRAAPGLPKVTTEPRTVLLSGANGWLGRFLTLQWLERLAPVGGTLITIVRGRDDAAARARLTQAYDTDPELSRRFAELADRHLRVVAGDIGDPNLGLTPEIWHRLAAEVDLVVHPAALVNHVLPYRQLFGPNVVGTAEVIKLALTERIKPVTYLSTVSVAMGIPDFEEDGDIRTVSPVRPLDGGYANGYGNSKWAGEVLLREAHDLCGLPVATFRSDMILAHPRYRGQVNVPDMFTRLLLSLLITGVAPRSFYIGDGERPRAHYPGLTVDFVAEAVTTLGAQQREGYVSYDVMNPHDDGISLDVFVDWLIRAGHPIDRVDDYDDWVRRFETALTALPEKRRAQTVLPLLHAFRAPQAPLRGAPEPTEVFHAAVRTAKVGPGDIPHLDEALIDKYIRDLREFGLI

[6] = biological target: T3, Mycobacterium smegmatis carboxylate reductase MSMEG_2956, SEQ ID NO: 70 (Mycolicibacterium smegmatis, UniProt A0QWI7); assay: as above
T3 sequence (A0QWI7 1-1168): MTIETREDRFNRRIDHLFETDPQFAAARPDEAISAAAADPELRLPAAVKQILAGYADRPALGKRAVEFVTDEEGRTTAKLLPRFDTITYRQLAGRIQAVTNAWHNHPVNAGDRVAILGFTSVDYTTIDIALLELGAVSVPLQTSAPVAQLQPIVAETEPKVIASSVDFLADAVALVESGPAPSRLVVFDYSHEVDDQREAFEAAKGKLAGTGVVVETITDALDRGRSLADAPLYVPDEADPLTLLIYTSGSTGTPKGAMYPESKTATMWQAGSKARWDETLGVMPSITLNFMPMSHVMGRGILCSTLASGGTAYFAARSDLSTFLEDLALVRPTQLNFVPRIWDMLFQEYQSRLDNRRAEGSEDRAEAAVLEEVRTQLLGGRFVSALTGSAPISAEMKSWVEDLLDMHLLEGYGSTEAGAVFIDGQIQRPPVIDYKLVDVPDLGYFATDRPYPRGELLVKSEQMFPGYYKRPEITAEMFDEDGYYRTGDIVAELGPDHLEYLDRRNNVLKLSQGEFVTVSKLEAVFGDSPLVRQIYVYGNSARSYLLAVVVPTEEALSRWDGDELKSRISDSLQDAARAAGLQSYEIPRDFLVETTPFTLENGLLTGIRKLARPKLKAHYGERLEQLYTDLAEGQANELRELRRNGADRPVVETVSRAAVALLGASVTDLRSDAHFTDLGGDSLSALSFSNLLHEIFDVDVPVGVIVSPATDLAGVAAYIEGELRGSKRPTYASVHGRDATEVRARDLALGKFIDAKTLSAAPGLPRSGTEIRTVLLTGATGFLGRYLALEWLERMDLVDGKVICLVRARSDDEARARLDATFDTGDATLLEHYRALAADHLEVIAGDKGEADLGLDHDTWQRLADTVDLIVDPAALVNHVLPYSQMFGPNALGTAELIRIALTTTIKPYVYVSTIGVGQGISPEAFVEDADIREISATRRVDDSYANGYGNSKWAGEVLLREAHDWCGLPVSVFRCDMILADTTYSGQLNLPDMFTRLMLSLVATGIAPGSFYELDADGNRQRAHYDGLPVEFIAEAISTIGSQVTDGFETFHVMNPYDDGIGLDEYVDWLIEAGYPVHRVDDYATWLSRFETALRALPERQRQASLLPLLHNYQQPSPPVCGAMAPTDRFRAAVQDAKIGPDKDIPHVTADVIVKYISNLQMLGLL

[7] = AR reductase activity, NAD(P)H oxidation at 340 nm; assay type: biochemical; conditions: 10 mM, ND = no activity was detected
Description: as §4

[8] = AT activity coupled with alanine and glutamate dehydrogenases; assay type: biochemical; conditions: 10 mM adipaldehyde, alanine and glutamate amino-donors; ND = no activity was detected
[9] = adipaldehyde, cofactor NADH, 1,8% DMSO

Bacillus coagulans 36D1 2-enoate reductase EREDBC, SEQ ID NO: 1, sequence (A0AAN0T7I1 entry or part of it): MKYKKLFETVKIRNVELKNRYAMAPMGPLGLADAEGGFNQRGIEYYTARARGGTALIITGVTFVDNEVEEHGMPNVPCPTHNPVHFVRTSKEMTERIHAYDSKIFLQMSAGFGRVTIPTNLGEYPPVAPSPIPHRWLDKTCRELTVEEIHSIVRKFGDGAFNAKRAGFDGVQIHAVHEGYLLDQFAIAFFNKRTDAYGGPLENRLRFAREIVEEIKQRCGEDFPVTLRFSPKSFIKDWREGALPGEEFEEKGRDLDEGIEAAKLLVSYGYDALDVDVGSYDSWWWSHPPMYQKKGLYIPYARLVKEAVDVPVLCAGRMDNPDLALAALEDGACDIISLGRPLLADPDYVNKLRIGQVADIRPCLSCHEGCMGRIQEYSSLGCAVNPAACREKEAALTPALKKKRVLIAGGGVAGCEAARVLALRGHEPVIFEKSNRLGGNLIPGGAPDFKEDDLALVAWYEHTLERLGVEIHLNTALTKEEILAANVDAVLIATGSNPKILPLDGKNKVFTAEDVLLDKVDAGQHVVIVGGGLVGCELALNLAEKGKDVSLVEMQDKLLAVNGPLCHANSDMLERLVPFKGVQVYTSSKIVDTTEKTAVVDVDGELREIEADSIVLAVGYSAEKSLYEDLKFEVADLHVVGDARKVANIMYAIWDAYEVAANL

O=C(O)C=CCCC(=O)O (racemic) [2-hexenedioic acid, 2-Hexenedioic acid]
fold higher catalytic efficiency (kcat/Km) of EREDBC compared to EREDCA ([1]; 2-hexenedioic acid in 0.25 mM isopropanol, 2.5 to 35 mM): 14.6 fold
saturation by substrate [1]: no saturation
saturation by substrate [2]: no saturation

O=C1C=CCCC1 [2-cyclohexen-1-one, 2-Cyclohexen-1-one]
saturation by substrate [1]: no saturation

CC1=CC(=O)CCC1 [3-methyl-2-cyclohexenone, 3-Methyl-2-cyclohexenone]
saturation by substrate [1]: no saturation

O=C(O)CCCCCO [6-hydroxyhexanoic acid]
kcat [3]: 2.91 ± 0.19 s⁻¹
kcat/Km [3]: 41.58 ± 2.77 M⁻¹ s⁻¹

O=CCCCCC=O [adipaldehyde]
Km [4, 9]: 6.89 ± 1.38 mM
kcat [4, 9]: 3.67 ± 0.31 s⁻¹
kcat/Km [4, 9]: (5.33 ± 0.45) × ×10^2 M^−1 · s^−1

O=C(O)CCCCC(=O)O [adipic acid]
Km [5]: 87.5 ± 16.2 mM
kcat [5]: 2.40 ± 0.26 s⁻¹
kcat [6]: 2.73 ± 0.20 s⁻¹
kcat/Km [6]: 25.2 ± 1.83 M⁻¹ s⁻¹

CCCC=O [butyraldehyde]
Km ([4]; butyraldehyde, cofactor NADH): 14.3 ± 0.88 mM
kcat ([4]; butyraldehyde, cofactor NADH): 25.77 ± 0.88 s⁻¹
kcat/Km ([4]; butyraldehyde, cofactor NADH): (1.80 ± 0.06) × ×10^3 M^−1 · s^−1
Km ([4]; butyraldehyde, cofactor NADPH): 1.53 ± 0.39 mM
kcat ([4]; butyraldehyde, cofactor NADPH): 1.28 ± 0.09 s⁻¹
kcat/Km ([4]; butyraldehyde, cofactor NADPH): (8.37 ± 0.59) × ×10^2 M^−1 · s^−1

RHA1_ro05279: aldehyde reductase (AR) from Rhodococcus jostii
Activity [U/mg protein] Adipaldehyde ([7]; 1.8% DMSO): 0.721 ± 0.026 U/mg protein
Activity [U/mg protein] Butyraldehyde [7]: 0.905 ± 0.834 U/mg protein

Rsp3534: aminotransferase (AT) from Rhodobacter sphaeroides
Adipaldehyde 10 mM U/mg [8]: 0.034 ± 0.005 U/mg

— patent US12371675B2, “Process and microorganism for synthesis of adipic acid from carboxylic acids” (THE GOVERNING COUNCIL OF THE UNIVERSITY OF TORONTO, priority 2015, dated 2025)
